Laboratory results taken from publication PMC11912224, “A general approach for activity-based protein profiling of oxidoreductases with redox-differentiated diarylhalonium warheads” (Chemical Science, 2025).

What was measured:
Test in all cases: covalent labelling, streptavidin enrichment, LC-MS/MS
Conditions in all cases: 30 uM probe, 1 h, mouse liver pieces
[1] = biological target: T1, aldehyde oxidase 1 (AOX1) (Mus musculus, UniProt O54754)
T1 construct: native, in intact mouse liver pieces
T1 sequence (O54754 1-1333): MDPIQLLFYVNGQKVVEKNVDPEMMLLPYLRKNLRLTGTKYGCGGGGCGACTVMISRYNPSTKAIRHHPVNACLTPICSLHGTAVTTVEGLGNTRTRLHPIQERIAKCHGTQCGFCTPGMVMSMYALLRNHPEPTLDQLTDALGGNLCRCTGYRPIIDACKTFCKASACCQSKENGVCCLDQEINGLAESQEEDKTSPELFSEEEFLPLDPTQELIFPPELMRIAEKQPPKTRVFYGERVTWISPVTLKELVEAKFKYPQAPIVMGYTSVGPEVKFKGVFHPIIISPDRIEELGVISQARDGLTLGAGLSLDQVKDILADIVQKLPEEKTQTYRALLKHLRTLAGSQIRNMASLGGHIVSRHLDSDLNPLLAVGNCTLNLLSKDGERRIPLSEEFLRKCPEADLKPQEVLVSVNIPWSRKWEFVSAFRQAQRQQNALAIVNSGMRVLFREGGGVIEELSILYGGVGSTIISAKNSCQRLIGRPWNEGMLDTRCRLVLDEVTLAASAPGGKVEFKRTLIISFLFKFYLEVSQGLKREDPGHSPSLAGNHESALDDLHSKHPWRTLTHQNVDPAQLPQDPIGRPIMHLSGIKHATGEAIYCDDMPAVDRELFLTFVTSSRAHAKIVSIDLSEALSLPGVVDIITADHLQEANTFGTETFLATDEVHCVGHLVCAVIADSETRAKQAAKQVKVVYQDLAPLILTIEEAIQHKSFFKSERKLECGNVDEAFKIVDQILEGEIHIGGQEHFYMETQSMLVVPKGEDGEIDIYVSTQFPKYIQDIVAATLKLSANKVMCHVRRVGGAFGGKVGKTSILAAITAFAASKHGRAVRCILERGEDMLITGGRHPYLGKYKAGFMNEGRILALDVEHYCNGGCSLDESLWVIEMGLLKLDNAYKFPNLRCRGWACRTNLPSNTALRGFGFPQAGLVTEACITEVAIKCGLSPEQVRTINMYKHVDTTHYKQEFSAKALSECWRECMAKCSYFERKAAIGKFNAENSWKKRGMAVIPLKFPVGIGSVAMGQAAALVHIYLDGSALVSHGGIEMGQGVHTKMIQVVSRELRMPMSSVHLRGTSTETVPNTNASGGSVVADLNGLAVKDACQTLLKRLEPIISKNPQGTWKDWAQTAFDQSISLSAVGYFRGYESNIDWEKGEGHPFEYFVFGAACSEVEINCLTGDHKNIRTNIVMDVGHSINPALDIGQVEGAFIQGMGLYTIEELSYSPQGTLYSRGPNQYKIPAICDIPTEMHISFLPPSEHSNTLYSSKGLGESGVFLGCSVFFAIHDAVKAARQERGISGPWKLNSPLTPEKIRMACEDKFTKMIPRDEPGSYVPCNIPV

[2] = biological target: T2, monoamine oxidase A (MAOA) (Mus musculus, UniProt Q64133)
T2 construct: native, in intact mouse liver pieces
T2 sequence (Q64133 1-526): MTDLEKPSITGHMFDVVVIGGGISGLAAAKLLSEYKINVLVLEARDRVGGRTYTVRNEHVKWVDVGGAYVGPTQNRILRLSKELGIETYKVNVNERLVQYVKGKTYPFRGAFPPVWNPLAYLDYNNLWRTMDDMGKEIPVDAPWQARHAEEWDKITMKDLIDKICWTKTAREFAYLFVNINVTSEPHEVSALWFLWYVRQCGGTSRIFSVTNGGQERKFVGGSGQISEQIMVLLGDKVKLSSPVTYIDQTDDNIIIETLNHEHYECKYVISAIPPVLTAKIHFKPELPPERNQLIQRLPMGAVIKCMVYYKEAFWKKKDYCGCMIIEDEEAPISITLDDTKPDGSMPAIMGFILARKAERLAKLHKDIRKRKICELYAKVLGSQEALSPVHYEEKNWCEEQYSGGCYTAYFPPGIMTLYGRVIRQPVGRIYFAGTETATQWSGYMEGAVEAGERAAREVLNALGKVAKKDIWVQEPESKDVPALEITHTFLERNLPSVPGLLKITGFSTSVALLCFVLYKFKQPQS

CYP2D10 = biological target: T3, CYP2D10 (Mus musculus, UniProt P24456)
T3 construct: native, in intact mouse liver pieces
T3 sequence (P24456 1-504): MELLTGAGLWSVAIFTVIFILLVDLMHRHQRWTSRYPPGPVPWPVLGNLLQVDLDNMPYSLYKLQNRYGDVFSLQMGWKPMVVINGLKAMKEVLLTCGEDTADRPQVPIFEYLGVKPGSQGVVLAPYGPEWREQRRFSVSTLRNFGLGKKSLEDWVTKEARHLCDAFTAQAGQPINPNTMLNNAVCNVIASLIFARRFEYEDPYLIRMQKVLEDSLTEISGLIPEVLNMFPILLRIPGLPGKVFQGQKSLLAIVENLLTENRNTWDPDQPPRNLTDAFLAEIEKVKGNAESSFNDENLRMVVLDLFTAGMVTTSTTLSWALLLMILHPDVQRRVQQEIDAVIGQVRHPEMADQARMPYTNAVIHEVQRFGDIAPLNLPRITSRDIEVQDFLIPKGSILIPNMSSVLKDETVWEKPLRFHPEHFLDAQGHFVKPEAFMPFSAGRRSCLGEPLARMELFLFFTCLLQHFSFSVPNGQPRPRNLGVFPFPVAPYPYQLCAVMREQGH

[3] = biological target: T4, glycerol-3-phosphate dehydrogenase mitochondrial (GPD2) (Mus musculus, UniProt Q64521)
T4 construct: native, in intact mouse liver pieces
T4 sequence (Q64521 43-727): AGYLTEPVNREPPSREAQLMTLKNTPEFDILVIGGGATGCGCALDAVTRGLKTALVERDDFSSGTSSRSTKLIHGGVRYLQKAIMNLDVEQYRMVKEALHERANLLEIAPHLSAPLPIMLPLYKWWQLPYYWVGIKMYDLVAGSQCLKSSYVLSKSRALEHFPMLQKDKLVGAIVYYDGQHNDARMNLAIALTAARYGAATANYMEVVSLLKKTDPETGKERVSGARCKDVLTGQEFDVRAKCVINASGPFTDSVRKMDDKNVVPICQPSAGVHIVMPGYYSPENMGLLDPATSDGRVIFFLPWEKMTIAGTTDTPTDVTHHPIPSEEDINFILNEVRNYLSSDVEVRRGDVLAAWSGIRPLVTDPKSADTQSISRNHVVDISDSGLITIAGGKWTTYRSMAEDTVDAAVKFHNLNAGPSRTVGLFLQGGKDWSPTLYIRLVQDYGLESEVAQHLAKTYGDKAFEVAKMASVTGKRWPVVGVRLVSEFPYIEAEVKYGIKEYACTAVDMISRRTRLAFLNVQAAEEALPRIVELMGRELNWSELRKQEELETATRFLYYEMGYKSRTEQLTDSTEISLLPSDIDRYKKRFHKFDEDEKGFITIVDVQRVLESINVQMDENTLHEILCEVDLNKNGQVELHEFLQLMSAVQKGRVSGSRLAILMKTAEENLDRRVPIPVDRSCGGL

[4] = biological target: T5, choline dehydrogenase (CHDH, mCHDH) (Mus musculus, UniProt Q8BJ64)
T5 construct: native, in intact mouse liver pieces
T5 sequence (Q8BJ64 35-596): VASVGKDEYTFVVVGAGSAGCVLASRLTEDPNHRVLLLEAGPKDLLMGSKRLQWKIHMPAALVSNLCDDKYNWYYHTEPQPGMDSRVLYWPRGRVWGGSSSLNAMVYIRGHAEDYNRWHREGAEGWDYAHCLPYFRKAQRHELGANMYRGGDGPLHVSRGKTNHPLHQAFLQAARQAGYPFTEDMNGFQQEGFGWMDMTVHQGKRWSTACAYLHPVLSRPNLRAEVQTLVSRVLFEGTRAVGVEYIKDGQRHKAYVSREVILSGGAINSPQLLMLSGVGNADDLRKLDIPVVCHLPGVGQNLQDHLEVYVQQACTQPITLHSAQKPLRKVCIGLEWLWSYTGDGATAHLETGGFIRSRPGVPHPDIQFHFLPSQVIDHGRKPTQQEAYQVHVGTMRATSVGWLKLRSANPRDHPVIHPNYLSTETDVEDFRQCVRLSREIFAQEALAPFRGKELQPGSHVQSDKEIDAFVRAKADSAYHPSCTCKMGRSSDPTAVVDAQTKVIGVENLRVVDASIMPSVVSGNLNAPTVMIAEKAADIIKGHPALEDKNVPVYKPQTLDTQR

[N-]=[N+]=NCCCCCCCCCCNC(=O)c1ccc2c(c1)[I+]c1ccccc1-2 [3da, diphenyleneiodonium-based probe 3da]
covalent labelling, streptavidin enrichment, LC-MS/MS [1]: five are oxidoreductases (CYP27A1, CYP2D10, CYP3A25, HMOX2, and AOX1)

[N-]=[N+]=NCCOCCOCCOCCNC(=O)c1ccc2c(c1)-c1ccccc1[Br+]2 [3fb, diphenylenebromonium probe 3fb]
covalent labelling, streptavidin enrichment, LC-MS/MS [2]: MAOA exclusively by diarylbromonium probe 3fb

[N-]=[N+]=NCCCCCCCCCCNC(=O)c1ccc2c(c1)[Br+]c1ccccc1-2 [3ga, diphenylenebromonium-based probe 3ga]
covalent labelling, streptavidin enrichment, LC-MS/MS (CYP2D10): two significantly enriched CYP450s (CYP27A1, CYP2D10) | covalent labelling, streptavidin enrichment, LC-MS/MS [3]: GPD2 was exclusively enriched by diarylbromonium probe 3ga

[N-]=[N+]=NCCCCCCCCCCNC(=O)c1ccc2c(c1)-c1ccccc1[Cl+]2 [3ha, diphenylenechloronium-based probe 3ha]
covalent labelling, streptavidin enrichment, LC-MS/MS [4]: choline dehydrogenase (CHDH), which is similar to the bacterial choline oxidase
